Measurements reported in PubChem BioAssay (NCI).
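Test compounds were applied to cells in 96-well plates for 48 hours at 5 doses. GI50: concentration for 50% inhibition of growth. The concentration for full growth arrest is given as TGI.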

Columns and labels:
Assay in all cases: growth of human tumour cells (NCI), 48 h
BT-549 breast = tested on: BT-549 breast
HCT-116 colon = tested on: HCT-116 colon
M14 melanoma = tested on: M14 melanoma
MDA-MB-435 = tested on: MDA-MB-435
NCI-H23 lung = tested on: NCI-H23 lung
NCI-H460 lung = tested on: NCI-H460 lung
OVCAR-4 ovarian = tested on: OVCAR-4 ovarian
OVCAR-5 ovarian = tested on: OVCAR-5 ovarian
SK-MEL-2 melanoma = tested on: SK-MEL-2 melanoma
SNB-75 CNS = tested on: SNB-75 CNS

CCc1ccc(-c2nnc(COc3ccc(-c4nc5ccc(C)cc5[nH]4)cc3OC)o2)cc1
GI50 (BT-549 breast): 1.96 µM
TGI (BT-549 breast): 4.34 µM
GI50 (HCT-116 colon): 3.19 µM
TGI (HCT-116 colon): 11.2 µM
GI50 (M14 melanoma): 2.27 µM
TGI (M14 melanoma): 5.84 µM
GI50 (MDA-MB-435): 2.51 µM
TGI (MDA-MB-435): 6.97 µM
GI50 (NCI-H23 lung): 4.52 µM
TGI (NCI-H23 lung): 54.4 µM
GI50 (NCI-H460 lung): 3.38 µM
TGI (NCI-H460 lung): 18.4 µM
GI50 (OVCAR-4 ovarian): 1.74 µM
TGI (OVCAR-4 ovarian): 3.53 µM
GI50 (OVCAR-5 ovarian): 5.21 µM
TGI (OVCAR-5 ovarian): > 100 µM
GI50 (SK-MEL-2 melanoma): 2.71 µM
TGI (SK-MEL-2 melanoma): 7.81 µM
GI50 (SNB-75 CNS): 1.41 µM
TGI (SNB-75 CNS): 2.96 µM

C[C@]12CC[C@@H]3c4ccc(O)cc4CC[C@H]3[C@@H]1C/C(=C\c1ccc([N+](=O)[O-])cc1)C2=O
TGI (BT-549 breast): > 100 µM
TGI (HCT-116 colon): > 100 µM
TGI (M14 melanoma): > 100 µM
TGI (MDA-MB-435): > 100 µM
TGI (NCI-H23 lung): > 100 µM
TGI (NCI-H460 lung): > 100 µM
TGI (OVCAR-4 ovarian): > 100 µM
TGI (OVCAR-5 ovarian): > 100 µM
TGI (SK-MEL-2 melanoma): > 100 µM
TGI (SNB-75 CNS): > 100 µM

C=C(O)c1ccccc1C#Cc1ccccc1C(=O)OC
TGI (BT-549 breast): > 10 µM
TGI (HCT-116 colon): > 10 µM
TGI (M14 melanoma): > 10 µM
TGI (MDA-MB-435): > 10 µM
TGI (NCI-H23 lung): > 10 µM
TGI (NCI-H460 lung): > 10 µM
TGI (OVCAR-4 ovarian): > 10 µM
TGI (OVCAR-5 ovarian): > 10 µM
TGI (SK-MEL-2 melanoma): > 10 µM
TGI (SNB-75 CNS): > 10 µM

CC(=O)ON(OC(C)=O)c1ccc(C)cc1
TGI (BT-549 breast): > 100 µM
TGI (HCT-116 colon): > 100 µM
TGI (M14 melanoma): > 100 µM
TGI (MDA-MB-435): > 100 µM
TGI (NCI-H23 lung): > 100 µM
TGI (NCI-H460 lung): > 100 µM
TGI (OVCAR-4 ovarian): > 100 µM
TGI (OVCAR-5 ovarian): > 100 µM
TGI (SK-MEL-2 melanoma): > 100 µM
TGI (SNB-75 CNS): > 100 µM

Cn1c(=O)oc2cc(C(=O)CSC(=S)N3CCCCCC3)ccc21
TGI (BT-549 breast): > 100 µM
TGI (HCT-116 colon): > 100 µM
TGI (M14 melanoma): > 100 µM
TGI (MDA-MB-435): > 100 µM
TGI (NCI-H23 lung): > 100 µM
TGI (NCI-H460 lung): > 100 µM
TGI (OVCAR-4 ovarian): > 100 µM
TGI (OVCAR-5 ovarian): > 100 µM
TGI (SK-MEL-2 melanoma): > 100 µM
TGI (SNB-75 CNS): > 100 µM

CC(=O)N=C(N=Nc1c(O)[nH]c2ccc(C)cc12)NC(C)=O
TGI (BT-549 breast): > 100 µM
TGI (HCT-116 colon): > 100 µM
TGI (M14 melanoma): > 100 µM
TGI (MDA-MB-435): > 100 µM
TGI (NCI-H23 lung): > 100 µM
TGI (NCI-H460 lung): > 100 µM
TGI (OVCAR-4 ovarian): > 100 µM
TGI (OVCAR-5 ovarian): > 100 µM
TGI (SK-MEL-2 melanoma): > 100 µM
TGI (SNB-75 CNS): > 100 µM

COC(CN(C)C(=O)C(C)NC(=O)c1ccccc1)OC (stereo not given)
TGI (BT-549 breast): > 100 µM
TGI (HCT-116 colon): > 100 µM
TGI (M14 melanoma): > 100 µM
TGI (MDA-MB-435): > 100 µM
TGI (NCI-H23 lung): > 100 µM
TGI (NCI-H460 lung): > 100 µM
TGI (OVCAR-4 ovarian): > 100 µM
TGI (OVCAR-5 ovarian): > 100 µM
TGI (SK-MEL-2 melanoma): > 100 µM
TGI (SNB-75 CNS): > 100 µM

c1ccc2c(c1)ccc1nc(-c3ccc4c(c3)OCO4)c3c(c12)CCCC3
TGI (BT-549 breast): > 100 µM
TGI (HCT-116 colon): > 100 µM
TGI (M14 melanoma): > 100 µM
TGI (MDA-MB-435): 87.7 µM
TGI (NCI-H23 lung): > 100 µM
TGI (NCI-H460 lung): > 100 µM
TGI (OVCAR-4 ovarian): 64.8 µM
TGI (OVCAR-5 ovarian): > 100 µM
TGI (SK-MEL-2 melanoma): > 100 µM
TGI (SNB-75 CNS): > 100 µM

Cc1c(N2C(=O)/C(=C/C=C/c3ccccc3)N=C2c2ccccc2)c(=O)n(-c2ccccc2)n1C
TGI (BT-549 breast): 40.2 µM
TGI (HCT-116 colon): > 100 µM
TGI (M14 melanoma): > 100 µM
TGI (MDA-MB-435): 33.1 µM
TGI (NCI-H23 lung): 61.1 µM
TGI (NCI-H460 lung): > 100 µM
TGI (OVCAR-4 ovarian): 50.3 µM
TGI (OVCAR-5 ovarian): 51.7 µM
TGI (SK-MEL-2 melanoma): 44.5 µM
TGI (SNB-75 CNS): 32.1 µM

CCOC(=O)/C(C#N)=C/c1ccc2c(-c3c(OCC)ccc4cc(/C=C(\C#N)C(=O)OCC)ccc34)c(OCC)ccc2c1
TGI (BT-549 breast): > 100 µM
TGI (HCT-116 colon): > 100 µM
TGI (M14 melanoma): 35.7 µM
TGI (MDA-MB-435): > 100 µM
TGI (NCI-H23 lung): > 100 µM
TGI (NCI-H460 lung): > 100 µM
TGI (OVCAR-4 ovarian): > 100 µM
TGI (OVCAR-5 ovarian): > 100 µM
TGI (SK-MEL-2 melanoma): > 100 µM
TGI (SNB-75 CNS): > 100 µM

O=C(OCCN=C1c2ccccc2CCc2ccccc21)c1cc([N+](=O)[O-])cc([N+](=O)[O-])c1
TGI (BT-549 breast): > 100 µM
TGI (HCT-116 colon): > 31.6 µM
TGI (M14 melanoma): > 31.6 µM
TGI (MDA-MB-435): > 31.6 µM
TGI (NCI-H23 lung): > 31.6 µM
TGI (NCI-H460 lung): > 31.6 µM
TGI (OVCAR-4 ovarian): > 100 µM
TGI (OVCAR-5 ovarian): > 31.6 µM
TGI (SK-MEL-2 melanoma): > 31.6 µM
TGI (SNB-75 CNS): > 100 µM

Cc1cc(-c2ccc(C(=O)O)[nH]2)on1
TGI (BT-549 breast): > 100 µM
TGI (HCT-116 colon): > 100 µM
TGI (M14 melanoma): > 100 µM
TGI (MDA-MB-435): > 100 µM
TGI (NCI-H23 lung): > 100 µM
TGI (NCI-H460 lung): > 100 µM
TGI (OVCAR-4 ovarian): > 100 µM
TGI (OVCAR-5 ovarian): > 100 µM
TGI (SK-MEL-2 melanoma): > 100 µM
TGI (SNB-75 CNS): > 100 µM

CCCC1NC(=O)C(CC(C)C)NC(=O)c2cccc(n2)C(=O)NC(CC(C)C)C(=O)NC(CCC)C(=O)NC(C(=O)OC)CCCCNC1=O (stereo not given)
TGI (BT-549 breast): 76 µM
TGI (HCT-116 colon): > 100 µM
TGI (M14 melanoma): > 100 µM
TGI (MDA-MB-435): > 100 µM
TGI (NCI-H23 lung): > 100 µM
TGI (NCI-H460 lung): > 100 µM
TGI (OVCAR-4 ovarian): > 100 µM
TGI (OVCAR-5 ovarian): > 100 µM
TGI (SK-MEL-2 melanoma): > 100 µM
TGI (SNB-75 CNS): 57.7 µM

CC/C(=N\NC(=O)c1cccnc1)c1ccc2c(c1)OCCO2
TGI (BT-549 breast): > 100 µM
TGI (HCT-116 colon): > 100 µM
TGI (M14 melanoma): > 100 µM
TGI (MDA-MB-435): > 100 µM
TGI (NCI-H23 lung): > 100 µM
TGI (NCI-H460 lung): > 100 µM
TGI (OVCAR-4 ovarian): > 100 µM
TGI (OVCAR-5 ovarian): > 100 µM
TGI (SK-MEL-2 melanoma): > 100 µM
TGI (SNB-75 CNS): > 100 µM
